Results on 25 compounds are retold here after US20200071326A1, “TAM KINASE INHIBITORS” (Syros Pharmaceuticals, Inc., priority 2017, published 2020).

One experiment concerns the target T1, MERTK (Homo sapiens, UniProt Q12866).
T1 sequence (Q12866 21-999): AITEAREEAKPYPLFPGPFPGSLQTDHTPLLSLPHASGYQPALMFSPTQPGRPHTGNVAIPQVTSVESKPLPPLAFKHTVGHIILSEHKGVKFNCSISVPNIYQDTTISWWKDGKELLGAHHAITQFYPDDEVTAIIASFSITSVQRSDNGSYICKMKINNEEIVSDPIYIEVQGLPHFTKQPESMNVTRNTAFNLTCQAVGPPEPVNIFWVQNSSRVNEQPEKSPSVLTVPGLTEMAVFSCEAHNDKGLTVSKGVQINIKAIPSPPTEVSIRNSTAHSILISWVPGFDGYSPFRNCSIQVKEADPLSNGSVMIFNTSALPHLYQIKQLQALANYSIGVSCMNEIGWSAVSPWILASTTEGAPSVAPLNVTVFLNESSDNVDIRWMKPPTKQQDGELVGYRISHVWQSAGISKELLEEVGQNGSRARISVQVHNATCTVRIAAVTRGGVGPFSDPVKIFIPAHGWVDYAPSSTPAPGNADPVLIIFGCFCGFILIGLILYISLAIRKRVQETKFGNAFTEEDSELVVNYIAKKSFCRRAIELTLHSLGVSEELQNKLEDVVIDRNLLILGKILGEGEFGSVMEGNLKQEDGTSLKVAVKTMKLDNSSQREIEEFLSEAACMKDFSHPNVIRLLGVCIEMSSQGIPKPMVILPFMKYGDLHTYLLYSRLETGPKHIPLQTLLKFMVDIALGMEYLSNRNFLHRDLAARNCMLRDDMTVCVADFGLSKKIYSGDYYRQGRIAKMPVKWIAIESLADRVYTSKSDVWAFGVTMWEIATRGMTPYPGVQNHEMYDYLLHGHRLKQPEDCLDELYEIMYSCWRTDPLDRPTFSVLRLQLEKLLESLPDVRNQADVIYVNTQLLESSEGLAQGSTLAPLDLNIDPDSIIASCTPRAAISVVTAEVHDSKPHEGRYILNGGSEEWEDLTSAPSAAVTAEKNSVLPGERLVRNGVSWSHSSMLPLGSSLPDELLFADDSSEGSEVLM
Put plainly: IMAP fluorescence polarization kinase assay, MERTK. Format: biochemical. The settings on record: ATP 2.69 μM, enzyme 1.5 nM, 240 minutes, read-out: MERTK inhibitory constant (Ki). The method, then:
(§1) Activities of compounds against each of TYRO3, AXL, and MERTK as well as against FLT3, were determined using an immobilized metal ion affinity-based fluorescence polarization (“IMAP”) assay. A fluorescently-labeled substrate peptide was phosphorylated in the kinase reaction, after which a binding solution containing large trivalent metal-based nanoparticles was added and the phosphorylated substrate binds to these beads. This reduces the rotational speed of the substrate which is then detected using fluorescence polarization as a read-out.
(§2) The substrates used for each enzyme are as follows: AXL: 5F1-KKKKEEIYFFFG-NH2(SEQ ID NO:1); FLT3: 5F1-KKKKEEIYFFF-NH2 (SEQ ID NO:2); MERTK: 5F1-EFPIYDFLPAKKK-NH2 (SEQ ID NO:3); and TYRO3: 5F1-EFPIYDFLPAKKK-NH2 (SEQ ID NO:4).
(§3) This assay was performed in a 384-well, polystyrene microplate in a final volume of 8 μl. Substrate (final concentration=400 nM), ATP (final concentrations=24.7μM for AXL; 2.74 μM for FLT3; 2.69 μM for MERTK; and 54.0 μM for TYRO3), compounds and enzyme (final concentrations=2.5 nM for AXL, FLT3 and TYRO3; 1.5 nM for MERTK) were pipetted in this order into the appropriate reaction buffer (AXL: 50 mM HEPES, pH 8.0, 1 mM DTT, 10 mM MgCl2, 0.01% BRU35, 0.01% Triton X-100; FLT3: 50 mM HEPES, pH 8.0, 1 mM DTT, 10 mM MgCl2, 0.01% Triton X-100, 0.01% NP40; MERTK/TYRO3: 50 mM HEPES, pH 8.0, 1 mM DTT, 10 mM MgCl2, 0.01% Triton X-100) and incubated at room temperature for varying times (AXL, FLT3 and MERTK: 240 minutes; TYRO3: 60 minutes). IMAP binding solution was then dispensed, the plate incubated for 60 minutes at room temperature and the fluorescence polarization measured. Data were analyzed using XLfit.

Another experiment deals with T2, TYRO3 (Homo sapiens, UniProt Q06418).
T2 sequence (Q06418 41-890): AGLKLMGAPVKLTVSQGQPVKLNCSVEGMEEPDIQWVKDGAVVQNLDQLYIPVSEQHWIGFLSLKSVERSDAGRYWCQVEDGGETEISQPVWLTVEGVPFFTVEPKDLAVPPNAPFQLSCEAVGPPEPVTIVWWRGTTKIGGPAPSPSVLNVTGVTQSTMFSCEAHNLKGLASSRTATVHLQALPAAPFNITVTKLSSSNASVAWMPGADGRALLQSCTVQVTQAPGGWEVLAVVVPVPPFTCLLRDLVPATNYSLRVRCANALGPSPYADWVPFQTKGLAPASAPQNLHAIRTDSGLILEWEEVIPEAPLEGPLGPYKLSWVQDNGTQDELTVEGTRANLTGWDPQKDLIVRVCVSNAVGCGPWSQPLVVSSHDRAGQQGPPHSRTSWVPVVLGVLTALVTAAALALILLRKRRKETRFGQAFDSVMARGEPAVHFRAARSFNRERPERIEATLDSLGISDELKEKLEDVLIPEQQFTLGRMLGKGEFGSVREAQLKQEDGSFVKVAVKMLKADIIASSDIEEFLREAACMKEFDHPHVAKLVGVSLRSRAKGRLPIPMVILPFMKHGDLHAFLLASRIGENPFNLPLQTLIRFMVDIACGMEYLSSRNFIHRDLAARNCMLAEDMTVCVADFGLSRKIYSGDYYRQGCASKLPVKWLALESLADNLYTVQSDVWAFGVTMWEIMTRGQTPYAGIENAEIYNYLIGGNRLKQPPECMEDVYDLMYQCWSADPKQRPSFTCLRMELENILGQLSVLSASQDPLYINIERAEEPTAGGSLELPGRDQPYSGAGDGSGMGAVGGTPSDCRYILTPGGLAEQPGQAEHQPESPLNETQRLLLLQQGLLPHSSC
Put plainly: IMAP fluorescence polarization kinase assay, TYRO3. The class given is biochemical. Particulars: ATP 54.0 μM, enzyme 2.5 nM, 60 minutes, read-out: TYRO3 inhibitory constant (Ki). As to the method: as §1, §2, §3

Structures can show the parent of a compound that is named as a salt. Some results are limits rather than exact numbers.

As for `CCCc1cc2c(N[C@H]3CC[C@H](N)CC3)c(C(=O)Nc3ccc(F)cc3)cnc2[nH]1` [Compound 100, 4-(((1r,4r)-4-aminocyclohexyl)amino)-N-(4-fluorophenyl)-2-propyl-1H-pyrrolo [2,3-b]pyridine-5-carboxamide hydrochloride], the inhibitory constant (Ki) at MERTK and on TYRO3 was under 100 nM throughout.

Regarding `CCCc1cc2c(N[C@H]3CC[C@H](O)CC3)c(C(=O)Nc3ccc(F)cc3)cnc2[nH]1` [Compound 101], the inhibition constant (Ki) on MERTK and on TYRO3 was 100 to 1000 nM throughout.

Consider `CCCc1cc2c(N[C@H]3CC[C@H](O)CC3)c(C(=O)NCc3ccc(-n4ccnc4)cc3)cnc2[nH]1` [Compound 102], for which the inhibitory constant (Ki) at MERTK and at TYRO3 was under 100 nM in each case.

In the case of `Cc1cc2c(N[C@H]3CC[C@H](N)CC3)c(C(=O)Nc3ccc(F)cc3)cnc2[nH]1` [Compound 103], the Ki was under 100 nM on MERTK and 1000 to 10000 nM at TYRO3.

As for `CCCc1cc2c(N[C@H]3CC[C@H](O)CC3)c(C(=O)NC3CCN(c4ncccn4)CC3)cnc2[nH]1` [Compound 104], the Ki on MERTK and on TYRO3 was under 100 nM throughout.

On to `CCCc1cc2c(N[C@H]3CC[C@H](O)CC3)c(-c3ccc(CN4CCOCC4)cn3)cnc2[nH]1` [Compound 105], for which the Ki at MERTK and on TYRO3 was under 100 nM in each case.

Turning to `CCCc1cc2c(N[C@H]3CC[C@H](O)CC3)c(-c3ccc(CN4CCOCC4)cc3)cnc2[nH]1` [Compound 106, (1r,4r)-4-((5-(4-(morpholinomethyl)phenyl)-2-propyl-1H-pyrrolo[2,3-b]pyridin-4-yl)amino)cyclohexanol hydrochloride], the Ki at MERTK and at TYRO3 was 100 to 1000 nM each time.

Turning to `CCCc1cc2c(N[C@H]3CC[C@H](O)CC3)c(-c3cnn(CCN(C)C)c3)cnc2[nH]1` [Compound 107], the inhibitory constant (Ki) at MERTK and on TYRO3 was 100 to 1000 nM each time.

Consider `CCCc1cc2c(N[C@H]3CC[C@H](N)CC3)c(-c3cnn(C)c3)cnc2[nH]1` [Compound 108, (1r,4r)-N1-(5-(1-methyl-1H-pyrazol-4-yl)-2-propyl-1H-pyrrolo[2,3-b]pyridine-4-yl)cyclohexane-1,4-diamine hydrochloride], for which the Ki on MERTK and at TYRO3 was under 100 nM in each case.

Regarding `CCCc1cc2c(N[C@H]3CC[C@H](O)CC3)c(-c3ccc(CNCC45C[C@H]6C[C@@H](C4)C[C@@H](C5)C6)cn3)cnc2[nH]1` [Compound 109], the inhibition constant (Ki) on MERTK and on TYRO3 was under 100 nM throughout.

For `N[C@H]1CC[C@H](Nc2c(C(=O)NCc3ccc(-n4ccnc4)cc3)cnc3[nH]c(-c4ccccc4)cc23)CC1` [Compound 110], the Ki at MERTK and on TYRO3 was under 100 nM throughout.

With `CCCc1cc2c(N[C@H]3CC[C@H](N)CC3)c(-c3cc(NC)ncn3)cnc2[nH]1` [Compound 111, (1r,4r)-N^1-(5-(6-(methylamino)pyrimidin-4-yl)-2-propyl-1H-pyrrolo[2,3-b]pyridine-4-yl)cyclohexane-1,4-diamine hydrochloride], the inhibition constant (Ki) at MERTK and at TYRO3 was under 100 nM in each case.

Regarding `CCCc1cc2c(N[C@H]3CC[C@H](N)CC3)c(-c3cc(NC(C)C)ncn3)cnc2[nH]1` [Compound 112], the Ki on MERTK and at TYRO3 was under 100 nM in each case.

As for `CCCc1cc2c(N[C@H]3CC[C@H](N)CC3)c(-c3ccccn3)cnc2[nH]1` [Compound 113], the Ki at MERTK and on TYRO3 was under 100 nM in each case.

Regarding `CCCc1cc2c(N[C@H]3CC[C@H](N)CC3)c(-c3ccc(F)cn3)cnc2[nH]1` [Compound 114], the Ki on MERTK and on TYRO3 was under 100 nM each time.

For the compound `CCCc1cc2c(N[C@H]3CC[C@H](N)CC3)c(-c3ccc(S(=O)(=O)N4CCOCC4)cn3)cnc2[nH]1` [Compound 115], the inhibitory constant (Ki) on MERTK and on TYRO3 was under 100 nM in each case.

Take `CCCc1cc2c(N[C@H]3CC[C@H](N)CC3)c(-c3cc(N)ncn3)cnc2[nH]1` [Compound 116]: the Ki at MERTK and at TYRO3 was under 100 nM each time.

Turning to `CCCc1cc2c(N[C@H]3CC[C@H](N)CC3)c(-c3nccs3)cnc2[nH]1` [Compound 117], the inhibition constant (Ki) at MERTK and at TYRO3 was under 100 nM each time.

Consider `CCCc1cc2c(N[C@H]3CC[C@H](N)CC3)c(-c3ccnc(N4CCCC4)n3)cnc2[nH]1` [Compound 118, (1r,4r)-N1-(2-propyl-5-(2-(pyrrolidin-1-yl)pyrimidin-4-yl)-1H-pyrrolo[2,3-b]pyridine-4-yl)cyclohexane-1,4-diamine hydrochloride], for which the inhibitory constant (Ki) at MERTK and on TYRO3 was under 100 nM throughout.

On to `CCc1cc2c(N[C@H]3CC[C@H](N)CC3)c(C(=O)NCc3ccc(-n4ccnc4)cc3)cnc2[nH]1` [Compound 119, N-(4-(1H-imidazol-1-yl)benzyl)-4-(((1r,4r)-4-aminocyclohexyl)amino)-2-ethyl-1H-pyrrolo[2,3-b]pyridine-5-carboxamide], for which the Ki on MERTK and at TYRO3 was under 100 nM each time.

With `CCCc1cc2c(N[C@H]3CC[C@H](N)CC3)c(-c3ccc(N)cn3)cnc2[nH]1` [Compound 120], the Ki on MERTK and at TYRO3 was under 100 nM throughout.

As to `CCCc1cc2c(N[C@H]3CC[C@H](N)CC3)c(C(=O)NCc3ccc(-n4ccnc4)cc3)cnc2[nH]1` [Compound 121], the inhibition constant Ki at MERTK and on TYRO3 was under 100 nM in each case.

Consider `CCCc1cc2c(N[C@H]3CC[C@H](N)CC3)c(-c3cc(OC)ncn3)cnc2[nH]1` [Compound 122], for which the Ki at MERTK and at TYRO3 was under 100 nM in each case.

`CCCc1cc2c(N[C@H]3CC[C@H](N)CC3)c(-c3ccnc(N)n3)cnc2[nH]1` [Compound 123]: the Ki at MERTK and at TYRO3 was under 100 nM each time.

With `CCCc1cc2c(N[C@H]3CC[C@H](N)CC3)c(C(=O)NC3CCOCC3)cnc2[nH]1` [Compound 124], the Ki on MERTK and on TYRO3 was under 100 nM in each case.
